From ChEMBL document CHEMBL4364344, “Design, synthesis and evaluation of activity and pharmacokinetic profile of new derivatives of xanthone and piperazine in the central nervous system” (Bioorg Med Chem Lett, 2019)
pKi: −log10 of the molar value.

Key:
[1] = target: Serotonin 2 (5-HT2) receptor (Rattus norvegicus) (UniProt P30994+P08909+P14842); experiment: Displacement of [3H]ketanserin from 5-HT2 receptor in Wistar rat brain cortex membrane at 10 uM after 40 mins by scintillation counting analysis relative to control; format: cell membranes
Mus musculus = experiment: Anxiolytic activity in albino Swiss CD-1 mouse assessed as increase in number of punished crossings at 10 mg/kg, ip administered 30 mins prior to test by four-plate test relative to control; format: functional
[2] = Ratio of drug uptake in CD-1 mouse brain to plasma at 5 mg/kg, ip measured up to 480 mins by LC/ESI-MS/MS analysis; format: ADME, organism-based; conditions: read-out: BPR
[3] = AUC (0 to total) in CD-1 mouse brain at 5 mg/kg, ip measured up to 480 mins by LC/ESI-MS/MS analysis; format: ADME, organism-based; conditions: in vivo, 8 h
[4] = Terminal half life in CD-1 mouse brain at 5 mg/kg, ip measured up to 480 mins by LC/ESI-MS/MS analysis; format: ADME, organism-based; conditions: read-out: beta t1/2
[5] = Mutagenicity in Salmonella typhimurium TA100 at 5 ug/plate preincubated for 20 mins followed by addition of top agar and measured after 48 hrs by Ames test; format: toxicity; conditions: salmonella enterica subsp. enterica serovar typhimurium
[6] = Mutagenicity in Salmonella typhimurium TA100 at 50 ug/plate preincubated for 20 mins followed by addition of top agar and measured after 48 hrs by Ames test; format: toxicity; conditions: salmonella enterica subsp. enterica serovar typhimurium
[7] = Mutagenicity in Salmonella typhimurium TA98 at 5 ug/plate preincubated for 20 mins followed by addition of top agar and measured after 48 hrs by Ames test; format: toxicity; conditions: salmonella enterica subsp. enterica serovar typhimurium
[8] = Mutagenicity in Salmonella typhimurium TA102 at 50 ug/plate preincubated for 20 mins followed by addition of top agar and measured after 48 hrs by Ames test; format: toxicity; conditions: salmonella enterica subsp. enterica serovar typhimurium
[9] = target: Adenosine receptor A2a (Homo sapiens) (UniProt P29274); experiment: Displacement of [3H]CGS 21680 from recombinant human A2A receptor at 10 uM after 120 mins by radiometric scintillation analysis relative to control
[10] = target: Adrenergic receptor alpha-2 (Rattus norvegicus) (UniProt P22086+P19328+P22909); experiment: Displacement of [3H]RX 821002 from rat brain alpha 2 receptor at 10 uM after 60 mins by radiometric scintillation analysis relative to control
[11] = target: Beta-1 adrenergic receptor (Homo sapiens) (UniProt P08588); experiment: Displacement of [3H](-)CGP 12177 from recombinant human beta1 receptor at 10 uM after 60 mins by radiometric scintillation analysis relative to control
[12] = target: Beta-2 adrenergic receptor (Homo sapiens) (UniProt P07550); experiment: Displacement of [3H](-)CGP 12177 from recombinant human beta 2 receptor at 10 uM after 120 mins by radiometric scintillation analysis relative to control
[13] = target: Type-1 angiotensin II receptor (Homo sapiens) (UniProt P30556); experiment: Displacement of [125I][Sar1,Ile8]-AT-II from recombinant human AT1 receptor at 10 uM after 120 mins by radiometric scintillation analysis relative to control
[14] = target: B2 bradykinin receptor (Homo sapiens) (UniProt P30411); experiment: Displacement of [3H]bradykinin from recombinant human B2 receptor at 10 uM after 60 mins by radiometric scintillation analysis relative to control
Rattus norvegicus [15] = species: Rattus norvegicus; experiment: Displacement of [3H]GABA from rat brain GABA receptor at 10 uM after 30 mins by radiometric scintillation analysis relative to control
[16] = target: C-C chemokine receptor type 1 (Homo sapiens) (UniProt P32246); experiment: Displacement of [125I]MIP-1alpha from recombinant human CCR1 receptor at 10 uM after 120 mins by radiometric scintillation analysis relative to control
[17] = target: Melanocortin receptor 4 (Homo sapiens) (UniProt P32245); experiment: Displacement of [125I]NDP-alpha -MSH from recombinant human MC4 receptor at 10 uM after 120 mins by radiometric scintillation counting analysis relative to control
[18] = target: Muscarinic acetylcholine receptor M2 (Homo sapiens) (UniProt P08172); experiment: Displacement of [3H]AF-DX 384 from recombinant human M2 receptor at 10 uM after 60 mins by radiometric scintillation analysis relative to control
[19] = target: Neurotensin receptor type 1 (Homo sapiens) (UniProt P30989); experiment: Displacement of [125I]Tyr3-neurotensin from human NSTR1 receptor at 10 uM after 60 mins by radiometric scintillation analysis relative to control
[20] = target: Mu-type opioid receptor (Homo sapiens) (UniProt P35372); experiment: Displacement of [3H]DAMGO from recombinant human MOR receptor at 10 uM after 120 mins by radiometric scintillation analysis relative to control
[21] = target: 5-hydroxytryptamine receptor 1A (Homo sapiens) (UniProt P08908); experiment: Displacement of [3H]8-OH-DPAT from recombinant human 5-HT1A receptor at 10 uM after 60 mins by radiometric scintillation analysis relative to control
[22] = target: 5-hydroxytryptamine receptor 2B (Homo sapiens, UniProt P41595); experiment: Displacement of [125I](+/-)DOI from recombinant human 5-HT2B receptor at 10 uM after 60 mins by radiometric scintillation analysis relative to control
[23] = target: Serotonin 3 (5-HT3) receptor (Homo sapiens) (UniProt P46098+A5X5Y0+O95264+Q70Z44+Q8WXA8); experiment: Displacement of [3H]BRL 43694 from recombinant human 5-HT3 receptor at 10 uM after 120 mins by radiometric scintillation analysis relative to control; format: protein-complex assay
[24] = target: 5-hydroxytryptamine receptor 5A (Homo sapiens) (UniProt P47898); experiment: Displacement of [3H]LSD from recombinant human 5-HT5A receptor at 10 uM after 120 mins by radiometric scintillation analysis relative to control
[25] = target: 5-hydroxytryptamine receptor 6 (Homo sapiens) (UniProt P50406); experiment: Displacement of [3H]LSD from recombinant human 5-HT6 receptor at 10 uM after 120 mins by radiometric scintillation analysis relative to control
[26] = target: L-type calcium channel (verapamil binding site) (Homo sapiens, UniProt O60840+Q01668+Q13698+Q13936); experiment: Displacement of [3H] Diltiazem from human L-type calcium channel verapamil binding site at 10 uM after 20 hrs by scintillation analysis relative to control; format: protein assay; conditions: probe [3H] Diltiazem
[27] = target: Small conductance calcium-activated potassium channel (Rattus norvegicus) (UniProt P70604+P70606+P70605); experiment: Displacement of [125I]apamin from rat brain SKCa at 10 uM after 60 mins by radiometric scintillation analysis relative to control
Rattus norvegicus [28] = species: Rattus norvegicus; experiment: Displacement of [3H] TBPS from rat GABA gated chloride channel at 10 uM measured after 120 mins by scintillation counter method relative to control relative to control
[29] = target: Sodium-dependent noradrenaline transporter (Homo sapiens) (UniProt P23975); experiment: Displacement of [3H]nisoxetine recombinant human norepinephrine transporter at 10 uM after 120 mins by radiometric scintillation analysis relative to control
[30] = Displacement of [3H]batrachotoxinin from rat brain sodium channel site 2 after 60 mins by scintillation counting analysis

Neurotensin receptor type 1 (Homo sapiens), sequence (P30989 whole entry): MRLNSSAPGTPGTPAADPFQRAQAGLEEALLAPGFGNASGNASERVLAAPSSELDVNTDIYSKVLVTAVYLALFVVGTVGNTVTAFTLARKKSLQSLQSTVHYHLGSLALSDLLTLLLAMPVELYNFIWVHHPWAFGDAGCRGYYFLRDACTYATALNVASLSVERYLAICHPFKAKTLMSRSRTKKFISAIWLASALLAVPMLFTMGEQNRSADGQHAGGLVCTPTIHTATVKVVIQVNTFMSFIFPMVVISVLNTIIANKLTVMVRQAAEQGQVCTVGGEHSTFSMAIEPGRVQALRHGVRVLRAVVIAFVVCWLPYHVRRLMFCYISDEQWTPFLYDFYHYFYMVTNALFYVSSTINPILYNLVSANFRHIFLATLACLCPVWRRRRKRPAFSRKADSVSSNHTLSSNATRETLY
5-hydroxytryptamine receptor 2B, sequence (P41595 whole entry): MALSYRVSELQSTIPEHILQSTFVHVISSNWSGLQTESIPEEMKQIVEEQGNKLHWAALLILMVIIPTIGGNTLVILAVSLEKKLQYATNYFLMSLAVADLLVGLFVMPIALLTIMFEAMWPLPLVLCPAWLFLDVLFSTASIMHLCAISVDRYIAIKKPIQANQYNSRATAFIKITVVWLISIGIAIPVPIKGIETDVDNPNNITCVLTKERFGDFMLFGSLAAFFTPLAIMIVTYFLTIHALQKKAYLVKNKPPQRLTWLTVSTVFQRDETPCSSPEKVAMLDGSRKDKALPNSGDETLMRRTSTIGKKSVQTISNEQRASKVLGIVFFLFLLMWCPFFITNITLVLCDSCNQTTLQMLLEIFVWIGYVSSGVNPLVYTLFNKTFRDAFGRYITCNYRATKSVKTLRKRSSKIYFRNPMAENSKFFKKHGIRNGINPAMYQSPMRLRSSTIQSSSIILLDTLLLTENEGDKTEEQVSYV
5-hydroxytryptamine receptor 1A (Homo sapiens), sequence (P08908 whole entry): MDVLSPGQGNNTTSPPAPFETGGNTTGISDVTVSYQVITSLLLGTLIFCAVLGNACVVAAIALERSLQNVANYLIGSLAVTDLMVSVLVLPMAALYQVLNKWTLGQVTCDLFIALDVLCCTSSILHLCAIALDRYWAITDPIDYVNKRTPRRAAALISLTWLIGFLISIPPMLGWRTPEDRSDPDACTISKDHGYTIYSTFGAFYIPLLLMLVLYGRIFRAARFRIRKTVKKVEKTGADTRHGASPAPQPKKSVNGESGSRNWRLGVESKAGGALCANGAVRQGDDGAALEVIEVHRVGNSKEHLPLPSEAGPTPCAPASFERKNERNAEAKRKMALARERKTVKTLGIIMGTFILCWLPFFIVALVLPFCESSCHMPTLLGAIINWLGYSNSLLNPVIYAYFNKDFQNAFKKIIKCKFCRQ
5-hydroxytryptamine receptor 5A (Homo sapiens), sequence (P47898 whole entry): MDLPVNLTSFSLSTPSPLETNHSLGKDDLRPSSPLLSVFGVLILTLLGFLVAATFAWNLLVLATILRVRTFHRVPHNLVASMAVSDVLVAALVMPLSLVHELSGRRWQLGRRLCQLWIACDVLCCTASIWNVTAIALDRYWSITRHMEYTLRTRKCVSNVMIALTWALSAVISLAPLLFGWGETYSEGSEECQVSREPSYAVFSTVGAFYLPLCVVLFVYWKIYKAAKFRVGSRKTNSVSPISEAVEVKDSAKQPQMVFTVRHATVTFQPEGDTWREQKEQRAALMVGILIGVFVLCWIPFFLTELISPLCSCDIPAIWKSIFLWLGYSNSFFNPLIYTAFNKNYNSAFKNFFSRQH
Beta-1 adrenergic receptor (Homo sapiens), sequence (P08588 whole entry, looked up): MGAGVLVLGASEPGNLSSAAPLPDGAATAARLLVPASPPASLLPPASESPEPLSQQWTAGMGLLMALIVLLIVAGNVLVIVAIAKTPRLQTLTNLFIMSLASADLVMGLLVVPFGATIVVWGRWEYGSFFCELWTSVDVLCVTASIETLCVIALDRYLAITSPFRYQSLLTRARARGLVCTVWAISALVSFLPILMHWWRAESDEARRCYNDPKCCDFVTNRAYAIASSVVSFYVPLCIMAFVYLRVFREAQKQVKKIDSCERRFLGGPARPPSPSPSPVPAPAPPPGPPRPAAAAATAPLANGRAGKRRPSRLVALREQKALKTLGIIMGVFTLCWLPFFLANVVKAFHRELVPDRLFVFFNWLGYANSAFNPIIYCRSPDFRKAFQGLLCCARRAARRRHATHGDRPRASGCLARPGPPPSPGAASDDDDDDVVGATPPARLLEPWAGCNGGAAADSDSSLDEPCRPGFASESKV
C-C chemokine receptor type 1 (Homo sapiens), sequence (P32246 whole entry): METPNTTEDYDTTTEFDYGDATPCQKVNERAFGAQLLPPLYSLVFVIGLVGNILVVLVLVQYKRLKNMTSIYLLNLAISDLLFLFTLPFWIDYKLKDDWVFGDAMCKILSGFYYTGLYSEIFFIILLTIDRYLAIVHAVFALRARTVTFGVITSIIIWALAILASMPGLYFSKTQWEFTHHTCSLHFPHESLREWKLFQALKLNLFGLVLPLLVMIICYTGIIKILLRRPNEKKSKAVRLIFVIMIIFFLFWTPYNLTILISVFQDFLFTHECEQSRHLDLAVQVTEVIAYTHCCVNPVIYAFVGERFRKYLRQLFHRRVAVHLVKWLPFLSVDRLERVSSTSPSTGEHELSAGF
Melanocortin receptor 4 (Homo sapiens), sequence (P32245 whole entry): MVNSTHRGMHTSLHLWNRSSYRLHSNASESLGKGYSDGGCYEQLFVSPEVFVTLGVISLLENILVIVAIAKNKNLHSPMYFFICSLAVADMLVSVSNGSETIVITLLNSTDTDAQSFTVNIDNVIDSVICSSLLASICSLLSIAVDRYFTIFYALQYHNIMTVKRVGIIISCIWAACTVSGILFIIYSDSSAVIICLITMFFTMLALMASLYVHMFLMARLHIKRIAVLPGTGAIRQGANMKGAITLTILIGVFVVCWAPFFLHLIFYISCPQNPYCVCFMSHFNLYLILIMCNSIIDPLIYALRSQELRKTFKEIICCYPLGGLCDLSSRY
Beta-2 adrenergic receptor (Homo sapiens), sequence (P07550 whole entry, looked up): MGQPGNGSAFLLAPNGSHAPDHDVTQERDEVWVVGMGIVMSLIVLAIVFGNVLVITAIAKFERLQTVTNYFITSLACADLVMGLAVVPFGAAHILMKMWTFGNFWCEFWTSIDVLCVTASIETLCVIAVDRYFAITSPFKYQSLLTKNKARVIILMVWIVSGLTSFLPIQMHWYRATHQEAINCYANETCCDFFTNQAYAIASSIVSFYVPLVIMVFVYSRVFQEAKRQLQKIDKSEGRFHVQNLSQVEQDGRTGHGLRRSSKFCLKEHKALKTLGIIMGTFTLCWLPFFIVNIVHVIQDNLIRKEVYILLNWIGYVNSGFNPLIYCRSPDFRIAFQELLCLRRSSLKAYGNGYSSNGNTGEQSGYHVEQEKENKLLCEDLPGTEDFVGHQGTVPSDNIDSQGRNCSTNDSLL
Adenosine receptor A2a (Homo sapiens), sequence (P29274 whole entry): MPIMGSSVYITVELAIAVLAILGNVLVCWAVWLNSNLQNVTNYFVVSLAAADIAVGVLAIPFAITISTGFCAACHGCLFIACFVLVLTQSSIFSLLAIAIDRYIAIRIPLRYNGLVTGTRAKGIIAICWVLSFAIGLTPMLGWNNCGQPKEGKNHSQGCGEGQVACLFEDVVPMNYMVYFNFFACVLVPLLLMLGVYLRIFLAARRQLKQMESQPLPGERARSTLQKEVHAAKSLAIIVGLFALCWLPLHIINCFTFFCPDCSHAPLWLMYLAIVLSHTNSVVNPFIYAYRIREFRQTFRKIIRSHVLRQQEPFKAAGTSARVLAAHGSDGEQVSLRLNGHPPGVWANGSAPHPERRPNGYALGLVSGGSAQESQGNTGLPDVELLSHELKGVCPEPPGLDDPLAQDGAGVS
Mu-type opioid receptor (Homo sapiens), sequence (P35372 whole entry): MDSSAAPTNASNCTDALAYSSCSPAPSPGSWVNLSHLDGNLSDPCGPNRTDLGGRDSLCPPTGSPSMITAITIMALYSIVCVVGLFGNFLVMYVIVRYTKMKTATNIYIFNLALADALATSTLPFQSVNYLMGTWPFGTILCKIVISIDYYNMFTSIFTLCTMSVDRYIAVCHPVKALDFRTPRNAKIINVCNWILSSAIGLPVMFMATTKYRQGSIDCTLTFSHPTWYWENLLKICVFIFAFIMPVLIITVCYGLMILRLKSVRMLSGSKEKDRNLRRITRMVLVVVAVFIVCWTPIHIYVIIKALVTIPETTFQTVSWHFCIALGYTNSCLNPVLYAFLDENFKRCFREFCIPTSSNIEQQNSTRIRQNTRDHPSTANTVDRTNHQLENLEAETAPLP
Sodium-dependent noradrenaline transporter (Homo sapiens), sequence (P23975 whole entry): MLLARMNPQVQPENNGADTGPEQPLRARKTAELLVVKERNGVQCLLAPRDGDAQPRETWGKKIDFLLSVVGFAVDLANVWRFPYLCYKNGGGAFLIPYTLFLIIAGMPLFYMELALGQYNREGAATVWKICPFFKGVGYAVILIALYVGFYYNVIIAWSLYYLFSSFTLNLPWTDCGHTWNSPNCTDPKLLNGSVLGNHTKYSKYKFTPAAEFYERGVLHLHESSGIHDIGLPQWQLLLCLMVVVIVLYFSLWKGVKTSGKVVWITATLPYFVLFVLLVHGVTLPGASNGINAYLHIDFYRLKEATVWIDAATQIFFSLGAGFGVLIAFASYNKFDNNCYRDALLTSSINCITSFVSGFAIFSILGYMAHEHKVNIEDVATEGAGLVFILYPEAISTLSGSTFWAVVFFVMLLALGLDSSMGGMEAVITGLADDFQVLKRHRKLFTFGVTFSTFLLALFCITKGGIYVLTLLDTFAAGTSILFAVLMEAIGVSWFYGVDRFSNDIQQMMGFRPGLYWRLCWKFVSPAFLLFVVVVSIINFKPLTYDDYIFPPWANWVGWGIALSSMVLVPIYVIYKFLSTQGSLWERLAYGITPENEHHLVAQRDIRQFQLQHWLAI

For `Cl.Cl.O=c1c2cc(Cl)ccc2oc2ccc(CN3CCN(CCOCCO)CC3)cc12`, the inhibition [1] was 47%, the Activity (Mus musculus) was 50.1% and the Kp at 8 h [2] was 9.79. It also gave an AUCt [3] of 3227321 ng·min/g, a half-life [4] of 2.88 h and an Activity_index [5] of 0.66. The Activity_index [6] was 0.64, the Activity_index [7] was 1.03 and the Activity_index [8] was 0.78. The inhibition [9] was 12.2%, the inhibition [10] was 9.2% and the inhibition [11] was 2.3%. The inhibition [12] was 3.7%, the inhibition [13] was 8.4% and the inhibition [14] was -7%. The inhibition (Rattus norvegicus [15]) was 11.7%, the inhibition [16] was -3.1% and the inhibition [17] was -4%. For the same molecule, the inhibition [18] was 35.9%, the inhibition [19] was -3.5% and the inhibition [20] was 11.8%. It also gave an inhibition [21] of -2.6%, an inhibition [22] of 76.8% and an inhibition [23] of 5.5%. It also gave an inhibition [24] of 13.8%, an inhibition [25] of 2.5% and an inhibition at 20 h, 10 µM [26] of 42.2%. For the same molecule, the inhibition [27] was 8.5%, the inhibition (Rattus norvegicus [28]) was 5% and the inhibition [29] was 43.1%. It also gave a pKi [30] of 5.87.
